Measurements reported in patent US5288709A, “Erythromycin derivatives” (priority 1991, dated 1994).
Values after ≈ are worked out from the molar mass of the structure shown. Read-outs that look alike come from different tables or passages of the source.

Columns and labels:
Assay in all cases: In-vitro antimicrobial activity primary screen (agar dilution MIC)
Type in all cases: cell-based
[1] = tested on: Staphylococcus aureus CMX 553; details: Staphylococcus aureus, CMX553, 24 h, BHI agar, 20-24 h, read-out: MIC
Method: (§1) The antimicrobial spectra of several of the compounds of the present invention were tested as described below.
(§2) Twelve petri dishes containing successive aqueous dilutions of the test compounds, mixed with 10 mL of sterilized Brain Heart Infusion (BHI) agar (Difco 0418-01-5), were prepared. Each plate was inoculated with 1:100 (or 1:10 for slow growing strains (primarily Micrococcus and Streptococcus) dilutions of up to 32 different microorganisms, using a Steers replicator block. The inoculated plates were incubated at 35 37° C. for 20-24 hours. In addition, a control plate, using BHI agar containing no test compound, was prepared and incubated at the beginning and the end of each test.
(§3) An additional plate containing a compound having known susceptibility patterns for the organisms being tested and belonging to the same antibiotic class as the test compounds was also prepared and incubated as a further control, as well as to provide test-to test comparability. Erythromycin A was used for this purpose.
(§4) After incubation, each plate was read. The MIC (minimum inhibitory concentration) is defined as the lowest concentration of test compound yielding no growth, a slight haze, or sparsely isolated colonies on the inoculum spot as compared to the growth control containing no test compound.

[2] = tested on: Micrococcus luteus ATCC 9341; details: 20-24 h
Method: as §1, §2
(§5) An additional plate containing a compound having known susceptibility patterns for the organisms being tested and belonging to the same antibiotic class as the test compounds was also prepared and incubated as a further control, as well as to provide test-to test comparability.
as §4

[3] = tested on: Enterococcus faecium ATCC 8043; details: Enterococcus faecium, ATCC8043, 24 h
Method: as §1, §2, §5, §4

[4] = tested on: Pseudomonas aeruginosa K799/61; details: Pseudomonas aeruginosa K799/61; BHI agar, 20-24 h; read-out: MIC
Method: as §1, §2, §5, §4

Escherichia coli SS = details: Escherichia coli, 24 h, BHI agar, 20-24 h
Method: as §1, §2, §5, §4

[5] = tested on: Pseudomonas aeruginosa BMH10; details: BHI agar, 20-24 h
Method: as §1, §2, §5, §4

[6] = tested on: Micrococcus luteus ATCC 4698; details: Micrococcus luteus, ATCC4698, 24 h, BHI agar, 20-24 h
Method: as §1, §2, §5, §4

[7] = tested on: Staphylococcus aureus A5177
Method: as §1, §2, §5, §4

[8] = tested on: Pseudomonas aeruginosa A5007
Method: as §1, §2, §5, §4

[9] = tested on: Staphylococcus aureus 642A; details: BHI agar, 20-24 h, read-out: MIC
Method: as §1, §2, §5, §4

[10] = tested on: Enterobacter aerogenes ATCC 13048; details: Klebsiella aerogenes, Enterobacter aerogenes ATCC 13048, BHI agar, 20-24 h
Method: as §1, §2, §5, §4

[11] = tested on: Streptococcus agalactiae CMX 508; details: 20-24 h
Method: as §1, §2, §5, §4

Escherichia coli JUHL = details: Escherichia coli JUHL, BHI agar, 20-24 h
Method: as §1, §2, §5, §4

[12] = tested on: Staphylococcus aureus NCTC 10649; details: NCTC10649, BHI agar, 20-24 h, read-out: MIC
Method: as §1, §2, §5, §4

[13] = tested on: Pseudomonas aeruginosa K799/WT; details: Pseudomonas aeruginosa, K799/WT, 24 h
Method: as §1, §2, §5, §4

Escherichia coli H560 = details: Escherichia coli H560, BHI agar, 20-24 h
Method: as §1, §2, §5, §4

Pseudomonas cepacia 2961 = details: BHI agar, 20-24 h
Method: as §1, §2, §5, §4

[14] = tested on: Streptococcus pyrogenes EES61; details: BHI agar, 20-24 h, read-out: MIC
Method: as §1, §2, §5, §4

[15] = tested on: Staphylococcus aureus 45 RAR2; details: Staphylococcus aureus, 45RAR2, 24 h, BHI agar, 20-24 h
Method: as §1, §2, §5, §4

[16] = tested on: Streptococcus pyrogenes 2548 INDUC; details: BHI agar, 20-24 h, read-out: MIC
Method: as §1, §2, §5, §4

Escherichia coli DC-2 = details: Escherichia coli DC-2, BHI agar, 20-24 h
Method: as §1, §2, §5, §4

[17] = tested on: Staphylococcus epidermidis 3519; details: BHI agar, 20-24 h, read-out: MIC
Method: as §1, §2, §5, §4

Acinetobacter SP CMX 669 = tested on: Acinetobacter SP CMX 669
Method: as §1, §2, §5, §4

Staphylococcus aureus 45 = details: BHI agar, 20-24 h
Method: as §1, §2, §5, §4

[18] = tested on: Staphylococcus aureus ATCC 6538P; details: Staphylococcus aureus, ATCC6538P, 24 h, BHI agar, 20-24 h
Method: as §1, §2, §5, §4

[19] = tested on: Providencia stuartii CMX 640
Method: as §1, §2, §5, §4

[20] = tested on: Streptococcus bovis A5169; details: Streptococcus equinus, A5169, 24 h, BHI agar, 20-24 h
Method: as §1, §2, §5, §4

[21] = tested on: Staphylococcus aureus CMX 503A; details: Staphylococcus aureus, CMX503A, 24 h, BHI agar, 20-24 h, read-out: MIC
Method: as §1, §2, §3, §4

[22] = tested on: Staphylococcus aureus CMX 686B; details: CMX686B, BHI agar, 20-24 h, read-out: MIC
Method: as §1, §2, §3, §4

[23] = tested on: Klebsiella pneumoniae ATCC 8045; details: Klebsiella pneumoniae, ATCC8045, 24 h, Klebsiella pneumoniae ATCC 8045; BHI agar, 20-24 h
Method: as §1, §2, §5, §4

SMILES: CC[C@H]1OC(=O)[C@H](C)[C@@H](O[C@H]2C[C@@](C)(OC)[C@@H](NC(N)=O)[C@H](C)O2)[C@H](C)[C@@H](O[C@@H]2O[C@H](C)C[C@H](N(C)C)[C@H]2O)[C@](C)(O)C[C@@H](C)[C@@H]2O[C@@]1(C)C(=O)[C@H]2C [Example 32, (4"S,9S)-4"-[(aminocarbonyl)amino]-9-deoxo-4",11,12-trideoxy-9,12-epoxy-11-oxoerythromycin A]
- MIC [1]: 0.2 µg/mL (≈ 0.264 µM)
- MIC ([2]; ATCC9341, BHI agar, read-out: MIC): 0.05 µg/mL (≈ 0.066 µM)
- MIC [3]: 0.2 µg/mL (≈ 0.264 µM)
- MIC [4]: 0.78 µg/mL (≈ 1.03 µM)
- MIC (Escherichia coli SS): 0.2 µg/mL (≈ 0.264 µM)
- MIC ([5]; read-out: MIC): 100 µg/mL (≈ 132 µM)
- MIC [6]: 0.2 µg/mL (≈ 0.264 µM)
- MIC ([7]; Staphylococcus aureus, A5177, 24 h): > 100 µg/mL
- MIC ([8]; Pseudomonas aeruginosa A5007, BHI agar, 20-24 h, read-out: MIC): > 100 µg/mL
- MIC [9]: 0.1 µg/mL (≈ 0.132 µM)
- MIC ([10]; ATCC13048, read-out: MIC): 100 µg/mL (≈ 132 µM)
- MIC ([11]; Streptococcus agalactiae, CMX508, 24 h, BHI agar): 0.05 µg/mL (≈ 0.066 µM)
- MIC (Escherichia coli JUHL; read-out: MIC): 100 µg/mL (≈ 132 µM)
- MIC [12]: 0.1 µg/mL (≈ 0.132 µM)
- MIC ([13]; Pseudomonas aeruginosa K799/WT, BHI agar, 20-24 h): 50 µg/mL (≈ 66 µM)
- MIC (Escherichia coli H560; read-out: MIC): 100 µg/mL (≈ 132 µM)
- MIC (Pseudomonas cepacia 2961; Burkholderia cepacia, read-out: MIC): > 100 µg/mL
- MIC [14]: 0.02 µg/mL (≈ 0.0264 µM)
- MIC [15]: 0.39 µg/mL (≈ 0.515 µM)
- MIC [16]: 0.78 µg/mL (≈ 1.03 µM)
- MIC (Escherichia coli DC-2; DC2, read-out: MIC): 100 µg/mL (≈ 132 µM)
- MIC [17]: 0.2 µg/mL (≈ 0.264 µM)
- MIC (Acinetobacter SP CMX 669; SPCMX669, Acinetobacter SP CMX 669, BHI agar, 20-24 h, read-out: MIC): 100 µg/mL (≈ 132 µM)
- MIC (Staphylococcus aureus 45; read-out: MIC): 0.2 µg/mL (≈ 0.264 µM)
- MIC [18]: 0.1 µg/mL (≈ 0.132 µM)
- MIC ([19]; CMX640, Providencia stuartii CMX 640, BHI agar, 20-24 h, read-out: MIC): > 100 µg/mL
- MIC [20]: 0.05 µg/mL (≈ 0.066 µM)

SMILES: CC[C@H]1OC(=O)[C@H](C)[C@@H](O[C@H]2C[C@@](C)(OC)[C@@H](OC(N)=O)[C@H](C)O2)[C@H](C)[C@@H](O[C@@H]2O[C@H](C)C[C@H](N(C)C)[C@H]2O)[C@](C)(O)C[C@@H](C)[C@@H]2O[C@@]1(C)[C@@H](O)[C@H]2C [Example 17, (9S,11S)-4"-O-Aminocarbonyl-9-deoxo-12-deoxy-9,12-epoxyerythromycin A]
- MIC [21]: 0.39 µg/mL (≈ 0.513 µM)
- MIC [1]: 0.39 µg/mL (≈ 0.513 µM)
- MIC [22]: 0.39 µg/mL (≈ 0.513 µM)
- MIC ([2]; Micrococcus luteus, ATCC9341, 24 h, BHI agar): 0.05 µg/mL (≈ 0.0657 µM)
- MIC [3]: 0.2 µg/mL (≈ 0.263 µM)
- MIC [4]: 0.78 µg/mL (≈ 1.03 µM)
- MIC (Escherichia coli SS): 0.2 µg/mL (≈ 0.263 µM)
- MIC ([5]; Pseudomonas aeruginosa, BMH10, 24 h): 25 µg/mL (≈ 32.9 µM)
- MIC [6]: 0.2 µg/mL (≈ 0.263 µM)
- MIC ([7]; Staphylococcus aureus A5177, BHI agar, 20-24 h, read-out: MIC): 12.5 µg/mL (≈ 16.4 µM)
- MIC ([8]; Pseudomonas aeruginosa, A5007, 24 h): > 100 µg/mL
- MIC ([10]; ATCC13048, 24 h): 50 µg/mL (≈ 65.7 µM)
- MIC ([11]; CMX508, BHI agar, read-out: MIC): 0.02 µg/mL (≈ 0.0263 µM)
- MIC (Escherichia coli JUHL; Escherichia coli, 24 h): 50 µg/mL (≈ 65.7 µM)
- MIC [13]: 25 µg/mL (≈ 32.9 µM)
- MIC (Escherichia coli H560; Escherichia coli, H560, 24 h): 25 µg/mL (≈ 32.9 µM)
- MIC (Pseudomonas cepacia 2961; Burkholderia cepacia, 2961, 24 h): > 100 µg/mL
- MIC [14]: 0.02 µg/mL (≈ 0.0263 µM)
- MIC [15]: 0.39 µg/mL (≈ 0.513 µM)
- MIC [16]: 1.56 µg/mL (≈ 2.05 µM)
- MIC (Escherichia coli DC-2; Escherichia coli, DC2, 24 h): 50 µg/mL (≈ 65.7 µM)
- MIC [17]: 0.78 µg/mL (≈ 1.03 µM)
- MIC (Acinetobacter SP CMX 669; Acinetobacter, SPCMX669, 24 h): 50 µg/mL (≈ 65.7 µM)
- MIC (Staphylococcus aureus 45; Staphylococcus aureus, 45, 24 h): 0.78 µg/mL (≈ 1.03 µM)
- MIC [18]: 0.2 µg/mL (≈ 0.263 µM)
- MIC ([19]; Providencia stuartii, CMX640, 24 h): > 100 µg/mL
- MIC [23]: 25 µg/mL (≈ 32.9 µM)
- MIC [20]: 0.05 µg/mL (≈ 0.0657 µM)
